Test results published in patent US20240158348A1, “HERBICIDAL CYCLIC AMIDES N-SUBSTITUTED WITH A HALOALKYLSULFONYLANILIDE GROUP” (FMC Corporation, priority 2021, published 2024).

Experiments:
Assay type in all cases: in vivo
soybean (Glycine max) = test: Test C preemergence, soybean; conditions: 0 is no effect, 100 is complete control
How it was run: (§1)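 Pre: soil sprayed at seeding. Post: seedlings treated at 1–2 leaves (2–10 cm). Vehicle non-phytotoxic solvent mix with surfactant; loam–sand medium; greenhouse; visual injury read at 10 or 12 days, scale 0–100.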

[1] = test system: ragweed (common ragweed, Ambrosia artemisiifolia); test: Test C postemergence, ragweed; conditions: visual injury, 0 to 100 scale (0 no effect, 100 complete control)
How it was run: as §1

corn (Zea mays) [2] = test: Test C preemergence, corn; conditions: 0 is no effect, 100 is complete control
How it was run: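 Steps: sow in loam soil blended with sand; treat soil preemergence by directed spray, or treat young plants (2–10 cm, one to two leaves) postemergence; hold in greenhouse 10 or 12 days; rate injury visually relative to untreated controls on a 0–100 scale.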

[3] = test system: oat, wild (wild oat, Avena fatua); test: Test C postemergence, wild oat; conditions: visual injury, 0 to 100 scale (0 no effect, 100 complete control)
corn (Zea mays) [4] = test: Test C postemergence, corn; conditions: visual injury, 0 to 100 scale (0 no effect, 100 complete control)
kochia (Bassia scoparia) = test: Test C preemergence, kochia; conditions: 0 is no effect, 100 is complete control
How it was run: as §1

[5] = test system: blackgrass (Alopecurus myosuroides); test: Test C preemergence, blackgrass; conditions: 0 is no effect, 100 is complete control
How it was run: as §1

[6] = test system: horseweed (Erigeron canadensis); test: Test C postemergence, horseweed; conditions: visual injury, 0 to 100 scale (0 no effect, 100 complete control)
How it was run: as §1

Row | SMILES | Plant response rating (0 to 100 scale), Soybean (soybean (Glycine max); 31 g ai/ha Preemergence) | Plant response rating (0 to 100 scale), Soybean (soybean (Glycine max); 125 g ai/ha Preemergence) | Ragweed plant response rating ([1]; 31 g ai/ha Postemergence) | Ragweed plant response rating ([1]; 125 g ai/ha Postemergence) | Plant response rating (0 to 100 scale), Corn (corn (Zea mays) [2]; 31 g ai/ha Preemergence) | Plant response rating (0 to 100 scale), Corn (corn (Zea mays) [2]; 125 g ai/ha Preemergence) | Oat, Wild plant response rating ([3]; 31 g ai/ha Postemergence) | Oat, Wild plant response rating ([3]; 125 g ai/ha Postemergence) | Corn plant response rating (corn (Zea mays) [4]; 31 g ai/ha Postemergence) | Corn plant response rating (corn (Zea mays) [4]; 125 g ai/ha Postemergence) | Plant response rating (0 to 100 scale), Kochia (kochia (Bassia scoparia); 31 g ai/ha Preemergence) | Plant response rating (0 to 100 scale), Kochia (kochia (Bassia scoparia); 125 g ai/ha Preemergence) | Plant response rating (0 to 100 scale), Blackgrass ([5]; 31 g ai/ha Preemergence) | Plant response rating (0 to 100 scale), Blackgrass ([5]; 125 g ai/ha Preemergence) | Horseweed plant response rating ([6]; 31 g ai/ha Postemergence) | Horseweed plant response rating ([6]; 125 g ai/ha Postemergence)
1 | Cc1cc(C)c(N2CCC(OCC3CCCO3)C2=O)cc1NS(=O)(=O)C(F)(F)F (centres unmarked) [Compound 42] | 0 | 90 | 40 | 90 | 0 | 70 | 0 | 40 | 20 | 90 | 20 | 90 | 20 | 70 | 20 | 80
2 | Cc1c(NS(=O)(=O)C(F)(F)F)cc(N2CCC(OC3CCC3)C2=O)c(C)c1C (centres unmarked) [Compound 45] | 50 | 100 | 50 | 80 | 90 | 100 | 10 | 30 | 20 | 90 | 90 | 100 | 60 | 90 | 30 | 90
3 | Cc1cc(C)c(N2CCC(OCC3CCCC3)C2=O)cc1NS(=O)(=O)C(F)(F)F (centres unmarked) [Compound 57] | 70 | 90 | 40 | 60 | 0 | 50 | 10 | 10 | 0 | 40 | 60 | 80 | 40 | 80 | 0 | 80
4 | C=C(C)COC1CCN(c2cc(NS(=O)(=O)C(F)(F)F)c(C)cc2C)C1=O (centres unmarked) [Compound 59] | 60 | 90 | 10 | 70 | 40 | 100 | 30 | 90 | 20 | 90 | 80 | 100 | 70 | 90 | 20 | 80
5 | CC#CCOC1CCN(c2cc(NS(=O)(=O)C(F)(F)F)c(C)cc2C)C1=O (centres unmarked) [Compound 60] | 50 | 90 | 80 | 90 | 30 | 100 | 30 | 90 | 90 | 100 | 90 | 100 | 80 | 90 | 80 | 100
6 | Cc1cc(C)c(N2CCC(OCc3ccccc3)C2=O)cc1NS(=O)(=O)C(F)(F)F (centres unmarked) [Compound 61] | 40 | 90 | 50 | 80 | 20 | 100 | 20 | 80 | 10 | 60 | 90 | 100 | 60 | 90 | 60 | 60
7 | Cc1c(NS(=O)(=O)C(F)(F)F)cc(N2CCC(OCC3CC3)C2=O)c(C)c1F (centres unmarked) [Compound 63] | 60 | 100 | 40 | 80 | 30 | 100 | 0 | 40 | 0 | 50 | 90 | 100 | 70 | 90 | 90 | 90
8 | Cc1c(NS(=O)(=O)C(F)(F)F)cc(N2CCC(OCC3CCC3)C2=O)c(C)c1F (centres unmarked) [Compound 64] | 40 | 90 | 30 | 70 | 10 | 60 | 0 | 10 | 0 | 10 | 70 | 90 | 20 | 70 | 10 | 60
